# Results: patent US20070219825A1, “METHOD OF MANAGING AND REDUCING SIDE EFFECTS ASSOCIATED WITH EXPOSURE TO A DRUG” (priority 2005, published 2007)
# Experiments:
# rat = test: reproductive toxicology studies, dosing during pregnancy; type: in vivo
# From the text: (§1) As described herein, an exemplary restricted drug distribution program for the distribution of sitaxsentan sodium has been developed, in accordance with the restricted distribution methods provided above, to minimize the risk of side effects associated with exposure to sitaxsentan sodium. Sitaxsentan sodium is an endothelin receptor antagonist (ETRA) used to treat people diagnosed with pulmonary arterial hypertension (PAH). […] However, along with the many benefits, there are many risks associated with exposure to sitaxsentan sodium. For instance, ETRA's, as a class, have been associated with liver function abnormalities. […] In addition, ETRA's, as a class, have consistently produced teratogenic effects in animals. […] Although the effects of sitaxsentan sodium on human development are not known, it is likely to produce major birth defects if used by pregnant women. Sitaxsentan sodium also is contraindicated for those taking cyclosporine A (used for treatment of psoriasis and rheumatoid arthritis, and to prevent rejection of organ transplants).
# [1] = placebo-controlled trials, liver aminotransferases; type: in vivo, patients
# From the text: as §1
# [2] = system: pulmonary arterial hypertension (PAH); test: clinical studies in subjects with PAH; type: in vivo
# From the text: as §1
# metabolism of warfarin = conditions: concomitant warfarin; cited from earlier work
smiles,measurement,setting,value
Cc1cc2c(cc1CC(=O)c1sccc1S(=O)(=O)Nc1onc(C)c1Cl)OCO2 [sitaxsentan sodium],reproductive toxicology: effect of dosing during pregnancy,rat,several fetal malformations
same,patients with at least a three-fold increase of liver aminotransferases (hepatoxicity),[1],about two
same,safety and efficacy in the treatment of PAH,[2],demonstrated safety and efficacy
same,effect on metabolism of warfarin,metabolism of warfarin,antagonize the metabolism of warfarin
